The record followed here is patent publication US20020028224A1, “Cosmetic compositions containing substituted amide derivatives” (Unilever Home & Personal Care USA, Division of Conopco, Inc., priority 2000, published 2002).

This assay concerns human sebocytes. Description: Sebum suppression: 14C-acetate label remaining in cultured human sebocytes. It counts as cell-based. The conditions noted are these: for activity at 1 µM / activity at 10 µM / activity at 0.1 µM / activity at 50 µM / activity at 28 µM / activity at 280 µM: Homo sapiens; for activity at 1 µM / activity at 10 µM / activity at 0.1 µM / activity at 50 µM: read-out: % of Control; for sebum suppressive activity in the presence of a retinoid / combined with retinol: summary in words, combined with retinol versus compound alone.

The mark [1] stands for this setting: Experiment A, 1 μM test compound + 1 μM Retinol.
The mark [2] stands for this setting: Experiment A, 1 μM test compound + 10 μM Retinol.
Setting [3] is: Experiment A, 1 μM test compound alone.
Where [4] appears, read: Experiment A, 10 μM test compound + 1 μM Retinol.
[5] abbreviates: Experiment A, 10 μM test compound + 10 μM Retinol.
The mark [6] stands for this setting: Experiment A, 10 μM test compound alone.
Setting [7] is: Experiment B, 0.1 μM test compound + 1 μM Retinol.
Where [8] appears, read: Experiment B, 0.1 μM test compound + 10 μM Retinol.
[9] abbreviates: Experiment B, 0.1 μM test compound alone.
Where [10] appears, read: Experiment B, 1 μM test compound + 1 μM Retinol.
[11] abbreviates: Experiment B, 1 μM test compound + 10 μM Retinol.
Setting [12] is: Experiment B, 1 μM test compound alone.
Setting [13] is: Experiment B, 10 μM test compound + 1 μM Retinol.
The mark [14] stands for this setting: Experiment B, 10 μM test compound + 10 μM Retinol.
Where [15] appears, read: Experiment B, 10 μM test compound alone.
Where [16] appears, read: Experiment A, 28 μM Phenol Red (positive control).
Setting [17] is: Experiment B, 280 μM Phenol Red (positive control).

“And” between values parts separate entries of the source, which are not always exact repeats. Identical values can stand only once. Like-named read-outs stand apart in the source and are kept apart here.

Regarding `CC(CCC(=O)NC(=O)Nc1ccccc1Sc1ccccc1CO)C1CCC2=C3CCC4CC(O)CCC4(C)C3CC(O)C21C` (centres unmarked) [Compound A], the activity at 1 µM is, setting by setting: under setting [1], 68.5%; under setting [2], 64.8%; under setting [3], 68.5%; under setting [10], 77.4%; under setting [11], 73.9%; under setting [12], 76.1%. Besides, the activity at 10 µM under setting [4] is 73.4%; the activity at 10 µM under setting [5] amounted to 60.8%; the activity at 10 µM under setting [6] amounted to 71%; the activity at 10 µM under setting [13] is 62.7%; the activity at 10 µM under setting [14] is 64.6%; the activity at 10 µM under setting [15] stood at 70.2%. The activity at 0.1 µM worked out at 88.8% under setting [7], 84.2% under setting [8] and 84.5% under setting [9].
Consider `CC(CCC(=O)N1CCN(c2ccccc2)CC1)C1CCC2=C3CCC4CC(O)CCC4(C)C3CC(O)C21C` (centres unmarked) [Compound B], for which the activity at 1 µM by setting is: under setting [1], 80%; under setting [2], 66.2%; under setting [3], 88.1%; under setting [10], 69.1%; under setting [11], 69.9%; under setting [12], 68%. Further, the activity at 10 µM came out at 8.7% under setting [4]; 7.2% under setting [5]; 25.6% under setting [6]; 0.3% under setting [13]; 0.3% under setting [14]; 0.3% under setting [15]. For the same compound, the activity at 0.1 µM runs as follows: under setting [7], 81.7%; under setting [8], 84.8%; under setting [9], 87.9%.
Consider `Cc1cccc(O)c1NC(=O)OC1CC(C)CCC1C(C)C` (centres unmarked) [Compound C], for which the activity at 1 µM came out at 66.5% under setting [2]; 70.1% under setting [3]; 78.2% under setting [10]; 68.8% under setting [11]; 75.3% under setting [12]. Besides, the activity at 10 µM turned out to be 0.2% under setting [5]; 0.2% under setting [6]; 0.4% under setting [13]; 0.4% under setting [14]; 0.4% under setting [15]. In addition, the activity at 0.1 µM is, setting by setting: under setting [7], 94%; under setting [8], 88.6%; under setting [9], 97.9%.
As for `O=C(Nc1ccc(O)cc1)Nc1cccc(C(F)(F)F)c1` [Compound E], the “sebum suppressive activity in the presence of a retinoid / combined with retinol” value is “improved sebum suppressive activity”. The activity at 1 µM under setting [1] turned out to be 75.1%. Also, the activity at 1 µM under setting [2] came out at 46.4%. For the same compound, the activity at 1 µM under setting [3] was determined as 66.4%. Moreover, the activity at 10 µM under setting [4] turned out to be 32%. The activity at 10 µM under setting [5] worked out at 2.3%. Under setting [6], the activity at 10 µM turned out to be 50%. Besides, the activity at 1 µM under setting [10] is 67.2%. Besides, under setting [11], the activity at 1 µM was determined as 54.2%. The activity at 1 µM under setting [12] amounted to 97.3%. Moreover, the activity at 10 µM under setting [13] is 49.8%. For the same compound, under setting [14], the activity at 10 µM was 2.1%. Also, the activity at 10 µM under setting [15] was determined as 66.4%.
Turning to `CCOC(=O)c1ccc(NC(=O)Nc2ccc(O)cc2)cc1` [Compound F], the “sebum suppressive activity in the presence of a retinoid / combined with retinol” value is reported as “improved sebum suppressive activity”. Moreover, under setting [1], the “% of Control” value is listed as 67.3%. The “% of Control” value under setting [2] worked out at 65.8%. The “% of Control” value under setting [3] is reported as 84.7%. Further, the “% of Control” value under setting [4] amounted to 66.2%. Moreover, the “% of Control” value under setting [5] came to 53.7%. In addition, the “% of Control” value under setting [6] came out at 82.7%.
For `Cc1cccc(N2CCN(C(=O)CC3C=CC(CC(=O)N4CCN(c5cccc(C)c5)C(C)C4)C3)CC2C)c1` (centres unmarked) [Compound G], the “sebum suppressive activity in the presence of a retinoid / combined with retinol” value is recorded as “improved sebum suppressive activity”. Besides, the activity at 10 µM (96 Well Plate, 10 μM test compound + 1 μM Retinol) was determined as 70.3%. The activity at 10 µM (96 Well Plate, 10 μM test compound alone) was 102%. In addition, the activity at 50 µM (96 Well Plate, 50 μM test compound + 1 μM Retinol) is 3.3%. In addition, the activity at 50 µM (96 Well Plate, 50 μM test compound alone) came to 25.5%.
On to `O=S1(=O)OC(c2ccc(O)cc2)(c2ccc(O)cc2)c2ccccc21` [Phenol Red, phenol red, reference compound], for which the “% of Control” value under setting [16] turned out to be 95.3%; the “% of Control” value under setting [17] is 46.5% and 52.2% and 54.9% and 56.8%. Further, the activity at 28 µM stood at 75.5% under setting [16] and 86.4% (Experiment B, 28 μM Phenol Red (positive control)). The activity at 280 µM was 15.9% (Experiment A, 280 μM Phenol Red (positive control)); 52.5% under setting [17]; 13.2% (Table 7, 280 μM Phenol Red (positive control)).
Regarding `CC1=C(/C=C/C(C)=C/C=C/C(C)=C/CO)C(C)(C)CCC1` [Retinol, retinol, reference compound], the activity at 10 µM (Experiment A, 10 μM Retinol alone) was 105%; the activity at 10 µM (Experiment B, 10 μM Retinol alone) was 106%; the activity at 10 µM (Table 7, 10 μM Retinol alone) was 106%. Besides, the activity at 1 µM worked out at 98.1% (Experiment B, 1 μM Retinol alone) and 98.1% (Table 7, 1 μM Retinol alone).
